Measurements from the supplement of paper PMC10307832.

Tests used:
Test in all cases: relative viability (nuclei count vs DMSO), 5 days (fraction); higher = more cells survive
[1] = compound: CC1=C(C(=NN1)C)CC2=C(C3=C(S2)N(C(=O)N(C3=O)C)CC(C)C)C(=O)N4C[C@@H](CO4)O + C[C@]1(O)C[C@@H](c2nc(-c3ccc4ccc(-c5ccccc5)nc4c3)c3c(N)nccn32)C1 [Linsitinib] (partner 1 µM)
Summary of the method: (§1)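 Relative viability was taken as the ratio of nuclei in treated wells to nuclei in vehicle wells. Lung cancer cell lines in 1536-well plates received compounds by pin tool one day after seeding, either one drug alone or a fixed anchor-drug dose plus five library-drug doses (not always all listed) in √10 steps. Nuclei were counted on 4× images after 5 days of treatment, and values are medians of duplicate plates.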

[2] = compound: CC1=C(C(=NN1)C)CC2=C(C3=C(S2)N(C(=O)N(C3=O)C)CC(C)C)C(=O)N4C[C@@H](CO4)O + CC(=O)c1c(C)c2cnc(Nc3ccc(N4CCNCC4)cn3)nc2n(C2CCCC2)c1=O [Palbociclib] (partner 0.5 µM)
Summary of the method: as §1

[3] = compound: CC1=C(C(=NN1)C)CC2=C(C3=C(S2)N(C(=O)N(C3=O)C)CC(C)C)C(=O)N4C[C@@H](CO4)O + CC(=O)Nc1cccc(-n2c(=O)n(C3CC3)c(=O)c3c(Nc4ccc(I)cc4F)n(C)c(=O)c(C)c32)c1 [Trametinib] (partner 0.02 µM)
Summary of the method: as §1

[4] = compound: CC1=C(C(=NN1)C)CC2=C(C3=C(S2)N(C(=O)N(C3=O)C)CC(C)C)C(=O)N4C[C@@H](CO4)O + CC1(C)CCC(c2ccc(Cl)cc2)=C(CN2CCN(c3ccc(C(=O)NS(=O)(=O)c4ccc(N[C@H](CCN5CCOCC5)CSc5ccccc5)c(S(=O)(=O)C(F)(F)F)c4)cc3)CC2)C1 [Navitoclax] (partner 0.5 µM)
Summary of the method: as §1

Cell Line | relative viability ([1]; first compound 0.0025 µM) | relative viability ([1]; first compound 0.007906 µM) | relative viability ([1]; first compound 0.025 µM) | relative viability ([1]; first compound 0.07906 µM) | relative viability ([1]; first compound 0.25 µM) | relative viability ([2]; first compound 0.0025 µM) | relative viability ([2]; first compound 0.007906 µM) | relative viability ([2]; first compound 0.025 µM) | relative viability ([2]; first compound 0.07906 µM) | relative viability ([2]; first compound 0.25 µM) | relative viability ([3]; first compound 0.0025 µM) | relative viability ([3]; first compound 0.007906 µM) | relative viability ([3]; first compound 0.025 µM) | relative viability ([3]; first compound 0.07906 µM) | relative viability ([3]; first compound 0.25 µM) | relative viability ([4]; first compound 0.0025 µM) | relative viability ([4]; first compound 0.007906 µM) | relative viability ([4]; first compound 0.025 µM) | relative viability ([4]; first compound 0.07906 µM) | relative viability ([4]; first compound 0.25 µM)
NCI-H358 | 0.707 | 0.794 | 0.801 | 0.892 | 0.998 | 0.144 | 0.132 | 0.12 | 0.121 | 0.14 | 0.146 | 0.125 | 0.146 | 0.125 | 0.129 |  |  |  |  | 
NCI-H522 |  |  |  |  |  | 1.08 | 1.02 | 0.852 | 0.521 | 0.618 | 0.77 | 0.768 | 0.701 | 0.606 | 0.657 |  |  |  |  | 
NCI-H596 | 1.02 | 1.14 | 1.08 | 1.13 | 1.13 |  |  |  |  |  | 0.789 | 0.871 | 0.878 | 0.76 | 0.886 | 1.06 | 1.16 | 0.931 | 1.01 | 1.16
NCI-H650 | 1.03 | 0.973 | 0.63 | 0.858 | 0.791 | 0.345 | 0.353 | 0.274 | 0.334 | 0.347 | 1.09 | 1.01 | 1.15 | 0.982 | 1.04 |  |  |  |  | 
NCI-H661 | 0.593 | 0.636 | 0.603 | 0.762 | 0.463 | 0.395 | 0.426 | 0.455 | 0.396 | 0.426 | 0.624 | 0.59 | 0.505 | 0.583 | 0.56 |  |  |  |  | 
NCI-H1299 | 1.03 | 0.875 | 0.926 | 1 | 1.06 |  |  |  |  |  |  |  |  |  |  | 1.08 | 1.04 | 1.08 | 1.05 | 0.987
NCI-H1563 | 1.15 | 1.24 | 1.26 | 1.23 | 1.23 |  |  |  |  |  |  |  |  |  |  |  |  |  |  | 
NCI-H1648 |  |  |  |  |  | 0.261 | 0.271 | 0.297 | 0.207 | 0.283 | 0.593 | 0.431 | 0.635 | 0.356 | 0.52 |  |  |  |  | 
NCI-H1650 |  |  |  |  |  | 0.344 | 0.351 | 0.374 | 0.327 | 0.347 | 0.626 | 0.687 | 0.759 | 0.62 | 0.788 | 1.37 | 1.22 | 1.2 | 1.27 | 1.21
NCI-H1703 | 0.691 | 0.253 | 0.638 | 0.448 | 0.804 |  |  |  |  |  |  |  |  |  |  | 1.36 | 1.4 | 0.972 | 0.928 | 0.744
NCI-H2170 |  |  |  |  |  | 0.432 | 0.446 | 0.431 | 0.39 | 0.409 | 0.909 | 0.966 | 0.956 | 0.756 | 0.94 | 0.613 | 0.747 | 0.556 | 0.612 | 0.543
NCI-H2342 |  |  |  |  |  | 0.514 | 0.562 | 0.442 | 0.502 | 0.593 | 0.932 | 0.751 | 0.724 | 0.854 | 0.976 |  |  |  |  | 
SW 900 |  |  |  |  |  | 0.541 | 0.583 | 0.624 | 0.497 | 0.651 | 0.666 | 0.951 | 0.787 | 0.74 | 0.8 |  |  |  |  | 
